ChEMBL document CHEMBL2331530, “Novel 3-O-carbamoyl erythromycin A derivatives (carbamolides) with activity against resistant staphylococcal and streptococcal isolates” (2013)
Converted amounts (≈) assume the structure as drawn.

Tests used:
Format in all cases: functional
Staphylococcus aureus [1] = assay: Antibacterial activity against macrolides, lincosamides, streptogramin B and methicillin-resistant Staphylococcus aureus 1609-09 harboring cfr gene assessed as growth inhibition
Staphylococcus aureus [2] = assay: Antibacterial activity against methicillin-resistant Staphylococcus aureus 1279-07 harboring cfr gene assessed as growth inhibition
Staphylococcus aureus [3] = assay: Antibacterial activity against methicillin-resistant Staphylococcus aureus 1281-07 harboring cfr gene assessed as growth inhibition
Staphylococcus aureus [4] = assay: Antibacterial activity against methicillin-resistant Staphylococcus aureus 2111-10-USA300 harboring cfr gene assessed as growth inhibition
Staphylococcus aureus [5] = assay: Antibacterial activity against methicillin-resistant Staphylococcus aureus 1279-07-USA300 assessed as growth inhibition
[6] = tested on: Staphylococcus epidermidis; assay: Antibacterial activity against macrolides, lincosamides, streptogramin B and methicillin-resistant Staphylococcus epidermidis 1105-00 assessed as growth inhibition
Streptococcus pyogenes = assay: Antibacterial activity against macrolides, lincosamides, and streptogramin B-resistant Streptococcus pyogenes 1304-00 assessed as growth inhibition
Streptococcus pneumoniae = assay: Antibacterial activity against macrolides, lincosamides, and streptogramin B-resistant Streptococcus pneumoniae 1243-00 assessed as growth inhibition
Staphylococcus aureus [7] = assay: Antibacterial activity against Staphylococcus aureus ATCC 29213 assessed as growth inhibition
Staphylococcus aureus [8] = assay: Antibacterial activity against macrolides, lincosamides, streptogramin B and methicillin-resistant Staphylococcus aureus 1015-00 assessed as growth inhibition

| Structure (SMILES) | MIC (Staphylococcus aureus [1]) | MIC (Staphylococcus aureus [2]) | MIC (Staphylococcus aureus [3]) | MIC (Staphylococcus aureus [4]) | MIC (Staphylococcus aureus [5]) | MIC [6] | MIC (Streptococcus pyogenes) | MIC (Streptococcus pneumoniae) | MIC (Staphylococcus aureus [7]) | MIC (Staphylococcus aureus [8]) |
| --- | --- | --- | --- | --- | --- | --- | --- | --- | --- | --- |
| CC[C@H]1OC(=O)[C@H](C)[C@@H](OC(=O)N2CCC[C@@H]2c2cccnc2)[C@H](C)[C@@H](O[C@@H]2O[C@H](C)C[C@H](N(C)C)[C@H]2O)[C@](C)(OC)C[C@@H](C)C(=O)[C@H](C)[C@H]2NC(=O)O[C@@]21C | > 64 µg/mL | 16 µg/mL (≈ 20.3 µM) | 0.125 µg/mL (≈ 0.158 µM) | 0.25 µg/mL (≈ 0.317 µM) | 16 µg/mL (≈ 20.3 µM) | > 64 µg/mL | 0.5 µg/mL (≈ 0.634 µM) | 0.5 µg/mL (≈ 0.634 µM) | 0.25 µg/mL (≈ 0.317 µM) | > 64 µg/mL |
| CC[C@H]1OC(=O)[C@H](C)[C@@H](OC(=O)N2CCC[C@H]2c2ccccc2)[C@H](C)[C@@H](O[C@@H]2O[C@H](C)C[C@H](N(C)C)[C@H]2O)[C@](C)(OC)C[C@@H](C)C(=O)[C@H](C)[C@H]2NC(=O)O[C@@]21C | > 64 µg/mL | > 64 µg/mL | 0.5 µg/mL (≈ 0.635 µM) | 0.5 µg/mL (≈ 0.635 µM) | > 64 µg/mL | > 64 µg/mL | > 64 µg/mL | > 64 µg/mL | 2 µg/mL (≈ 2.54 µM) | > 64 µg/mL |
| CC[C@H]1OC(=O)[C@H](C)[C@@H](OC(=O)N2CC(C)(C)C[C@@H]2c2cccnc2)[C@H](C)[C@@H](O[C@@H]2O[C@H](C)C[C@H](N(C)C)[C@H]2O)[C@](C)(OC)C[C@@H](C)C(=O)[C@H](C)[C@H]2NC(=O)O[C@@]21C | > 64 µg/mL | – | – | – | > 64 µg/mL | 16 µg/mL (≈ 19.6 µM) | 0.03 µg/mL (≈ 0.0367 µM) | 0.03 µg/mL (≈ 0.0367 µM) | 4 µg/mL (≈ 4.9 µM) | > 64 µg/mL |
| CC[C@H]1OC(=O)[C@H](C)[C@@H](OC(=O)N2CC(C)(C)C[C@@H]2c2ccc3c(c2)OCO3)[C@H](C)[C@@H](O[C@@H]2O[C@H](C)C[C@H](N(C)C)[C@H]2O)[C@](C)(OC)C[C@@H](C)C(=O)[C@H](C)[C@H]2NC(=O)O[C@@]21C | > 64 µg/mL | 0.25 µg/mL (≈ 0.291 µM) | 0.25 µg/mL (≈ 0.291 µM) | 0.25 µg/mL (≈ 0.291 µM) | 4 µg/mL (≈ 4.65 µM) | > 64 µg/mL | 2 µg/mL (≈ 2.33 µM) | 0.5 µg/mL (≈ 0.581 µM) | 0.25 µg/mL (≈ 0.291 µM) | > 64 µg/mL |
| CC[C@H]1OC(=O)[C@H](C)[C@@H](OC(=O)N2CC(C)(C)C[C@@H]2c2ccc(Cl)cc2Cl)[C@H](C)[C@@H](O[C@@H]2O[C@H](C)C[C@H](N(C)C)[C@H]2O)[C@](C)(OC)C[C@@H](C)C(=O)[C@H](C)[C@H]2NC(=O)O[C@@]21C | 64 µg/mL (≈ 72.3 µM) | 0.25 µg/mL (≈ 0.283 µM) | 0.25 µg/mL (≈ 0.283 µM) | 0.25 µg/mL (≈ 0.283 µM) | 0.5 µg/mL (≈ 0.565 µM) | 8 µg/mL (≈ 9.04 µM) | 0.03 µg/mL (≈ 0.0339 µM) | 0.015 µg/mL (≈ 0.017 µM) | 0.25 µg/mL (≈ 0.283 µM) | 32 µg/mL (≈ 36.2 µM) |
| CC[C@H]1OC(=O)[C@H](C)[C@@H](OC(=O)N2CC(C)(C)C[C@@H]2c2cccc(Cl)c2Cl)[C@H](C)[C@@H](O[C@@H]2O[C@H](C)C[C@H](N(C)C)[C@H]2O)[C@](C)(OC)C[C@@H](C)C(=O)[C@H](C)[C@H]2NC(=O)O[C@@]21C | 64 µg/mL (≈ 72.3 µM) | 0.5 µg/mL (≈ 0.565 µM) | 0.25 µg/mL (≈ 0.283 µM) | 0.5 µg/mL (≈ 0.565 µM) | 2 µg/mL (≈ 2.26 µM) | 16 µg/mL (≈ 18.1 µM) | 1 µg/mL (≈ 1.13 µM) | 1 µg/mL (≈ 1.13 µM) | 0.5 µg/mL (≈ 0.565 µM) | 32 µg/mL (≈ 36.2 µM) |
| CC(=O)NC[C@H]1CN(c2ccc(N3CCOCC3)c(F)c2)C(=O)O1 [LINEZOLID] | 8 µg/mL (≈ 23.7 µM) | 0.5 µg/mL (≈ 1.48 µM) | 0.5 µg/mL (≈ 1.48 µM) | 0.5 µg/mL (≈ 1.48 µM) | 1 µg/mL (≈ 2.96 µM) | 8 µg/mL (≈ 23.7 µM) | 0.125 µg/mL (≈ 0.371 µM) | 0.125 µg/mL (≈ 0.371 µM) | 0.5 µg/mL (≈ 1.48 µM) | 8 µg/mL (≈ 23.7 µM) |
